Measurements reported in patent US6537577B1, “Method of prophylaxis for bovine mastitis” (Bio Medical Development Corporation, priority 2001, dated 2003).
Several values for one entry are separate records, joined by “and”; a condition that tells them apart may be missing. Equal entries are not always repeated.

Key:
Staph. aureus ATCC 29740 [1] = assay: Excised teat study, preliminary trial; assay type: cell-based, Staphylococcus aureus; settings: for colony count per plate: plates 1-2, count no. 1 and 2
Excerpt: To evaluate the microbicidal activity of the compositions of EXAMPLE 1 and EXAMPLE 2, basic excised teat models used for these experiments are based on providing procedures by Twomey, A, and M. A Arnold, National Dairy Lab. Report, Ruaburn Agric. Res. Center, Hamilton, New Zealand.
Excess skin and tissue were trimmed, teats were washed in a mild detergent and warm water, rinsed in water, dried, and dipped in 70% ethyl alcohol. Teats were placed in plastic bags in a glycerin and water solution, and subsequently frozen at −20° C. until further use. Frozen teats were thawed in warm water, rinsed in water, dried, and dipped in 70% ethyl alcohol, dried with paper towels, and suspended by metal clips from a glass rod.
The pathogen strain that was used for this study was Staph. aureus ATCC 29740. For preparation of Staph. aureus, five 6-ml tubes of trypticase soy broth (TSB) (Becton Dickinson, Cockeysville, Md.) were inoculated from a culture of Staph. aureus actively growing on trypticase soy agar (TSA) (Becton Dickinson) containing 5% bovine calf blood. These tubes were incubated for 5 to 7 hours at 37° C., and this culture was used to inoculate 250 ml of TSB, which was incubated on a gyratory shaker for 16 hours. After incubation, bacterial cells were pelleted by centrifugation at approximately 7000×g, washed twice in 0.1% proteose peptone (Difco Laboratories, Detroit, Mich.), and resuspended to approximately 200 ml in proteose peptone. Serial dilutions were prepared in proteose peptone, and 0.1 ml was plated on TSA. Plates, were incubated for 24 hours at 37° C. and colonies were counted to determine the microbial concentration of the stock suspension.
Challenge suspensions of Staph. aureus containing approximately 1×10^8 cfu/ml of each organism (diluted with pasteurized milk) were prepared and used for the excised teat trials. The quenching solution was letheen broth (Difco Laboratories) modified to contain 1% sodium thiosulfate (Sigma Chemical Co., St. Louis, Mo.).
Teats were dipped in a Staph. aereus bacterial suspension to a depth of 15 mm and allowed to drain for 5 minutes. Teats were then dipped into two coating formulations of EXAMPLE 1 and EXAMPLE 2, (Formula No. 3 and Formula No. 5, respectively) to a depth of approximately 30 mm and allowed to drain for 10 minutes. […] The coating was then removed from each teat using a sterile cotton swab by rolling the edge of the softened film using a downward motion toward the teat apex, placed in 5 ml of quencher in sterile blood dilution vials (Baxter Diagnostics, McGaw Park, Ill.), mixed by vortexing for 5 seconds, and after serial dilution, a 0.1-ml aliquot was plated onto TSA. The quenching solution (Bacto-Letheen Broth) was used to inactivate the chlorhexidine germicide and prevent further bacterial killing upon culture. Immediately after the dried coating products were removed from the teats, each teat was rinsed to a total volume of 5 ml of quencher, the rinse collected in sterile blood dilution vials (Baxter Diagnostics) separate from the peelings, mixed by vortexing for 5 seconds, and after serial dilution, a 0.1-ml aliquot was plated to determine the number of organisms remaining on the teat after removal of the coating.

Staph. aureus ATCC 29740 [2] = assay: Excised teat study, Trial 1; assay type: cell-based, Staphylococcus aureus
Protocol: (§1) Teats were prepared as described earlier. The pathogen strains that were used for this study were Staph. aureus ATCC 29740 and Strep. Agalactiae ATCC 27956. A culture of Strep. Agalactiae was prepared by thawing a frozen vial of Strep. Agalactiae and plating on a TSA blood plate. After 24 hours incubation at 37° C., five 6-ml tubes of TSB were inoculated with approximately six colonies of Strep. Agalactiae each. These cultures were incubated at 37° C. for approximately 16 hours and then used to inoculate 250 ml of TSB. This culture was incubated on a gyratory shaker for approximately 5.5 hours. Serial dilutions were prepared in proteose peptone, and 0.1 ml was plated on TSA. Plates were incubated for 24 hours at 37° C. and colonies were counted to determine the microbial concentration of the stock suspension.
(§2) The dilution required to prepare a challenge inoculum of approximately 1×10^8 colony-forming units (cfu)/ml of Staph. aureus or Strep. […] Challenge suspensions of Staph. aureus and Strep. Agalactiae containing approximately 1×10^8 cfu/ml of each organism (diluted with pasteurized milk) were prepared and used for the excised teat trials. The quenching solution was letheen broth (Difco Laboratories) modified to contain 1% sodium thiosulfate (Sigma Chemical Co., St. Louis, Mo.).
(§3) Agalactiae, respectively. […] Teats were dipped in the bacterial challenge suspensions once to a depth of approximately 15 mm and allowed to drain for 5 minutes, then dipped with the test products to a depth of approximately 30 mm and drained for an additional 10 minutes. For the challenged, but undipped negative control teats, the drainage time was 15 minutes. […] This coating film peeling from each teat was placed in sterile blood dilution vials (Baxter Diagnostics). Remaining organisms on teat skin were then removed by rinsing each teat with approximately 5 ml of quencher expressed from a polyethylene wash bottle into the same vial containing the coating film peeling. Each vial was vortexed for 5 seconds before plating.
(§4) For all three trials, serial dilutions of peelings or rinses were made in 0.1% proteose peptone, and platinf was in 0.1-ml aliquots on Mannitol Salt agar (Becton Dickinson) for Staph. aureus and TKT/FC agar (Bccton Dickinson) with 0.3% thallium acetate (Sigma Chemical Co.) for Strep. Agalactiae. […] Plates were incubated for 24 hours at 37° C. and colonies were counted. The geometric mean count of the plates was determined, multiplied by […] to express the total volume of rinse, and then multiplied by the dilution factor to yield the total cfu per teat. In cases in which no organisms were recovered from a teat, the value of 0.01 was substituted fro zero in order statistically determine the mean cfu counts.
(§5) The same set of teats was used for each trial. […]

[3] = tested on: Strep. Agalactiae ATCC 27956; assay: Excised teat study, Trial 2; assay type: cell-based, Streptococcus agalactiae
Protocol: as §1, §2, §3, §4, §5

[4] = log of total organisms recovered
[5] = of plate counts at the treatment's dilution
[6] = peeling and rinse combined, total cfu per teat

CC(=O)O [2.5% acetic acid, acetic acid]
Total organisms Recovered (Staph. aureus ATCC 29740 [1]): 16,029,000 | colony count per plate (Staph. aureus ATCC 29740 [1]; Dilution −3): TNTC^1 and TNTC | colony count per plate (Staph. aureus ATCC 29740 [1]; Dilution −4): 327 and 268 and 460 and 262 | Log (Staph. aureus ATCC 29740 [1]; [4]): 7.20 | Geometric Mean (Staph. aureus ATCC 29740 [1]; of plate counts, dilution −4): 320.58^3 | Log reduction (Staph. aureus ATCC 29740 [1]; versus negative control): 0.44 | Log (Staph. aureus ATCC 29740 [2]; [4]): 6.66 | Geometric Mean (Staph. aureus ATCC 29740 [2]; [5]): 92.41 | Total organisms Recovered (Staph. aureus ATCC 29740 [2]; [6]): 4,620,500 | Log reduction (Staph. aureus ATCC 29740 [2]; versus negative control): 0.76 | Log [3, 4]: 6.11 | Geometric Mean [3, 5]: 25.98 | Total organisms Recovered [3, 6]: 1,299,000 | Log reduction ([3]; versus negative control): 0.93
